Measurements taken from ChEMBL document CHEMBL1144464, “Mutations in fusA associated with posttherapy fusidic acid resistance in Clostridium difficile” (2007).

Experiments:
Format in all cases: functional
Clostridioides difficile [1] = assay: Antibacterial activity against fusidic acid resistant Clostridium difficile 57:3 isolate with fusA S116L and A374V mutation after 35 to 40 days
Clostridioides difficile [2] = assay: Antibacterial activity against fusidic acid resistant Clostridium difficile 26:2 isolate with fusA D432N mutation after 8 to 13 days
Clostridioides difficile [3] = assay: Antibacterial activity against fusidic acid resistant Clostridium difficile 49:2 isolate after 8 to 13 days
Clostridioides difficile [4] = assay: Antibacterial activity against fusidic acid resistant Clostridium difficile 26:1 isolate after 1 day; conditions: 24 h
Clostridioides difficile [5] = assay: Antibacterial activity against fusidic acid resistant Clostridium difficile 26:3 isolate with fusA M16I and H455N mutation after 35 to 40 days
Clostridioides difficile [6] = assay: Antibacterial activity against fusidic acid resistant Clostridium difficile 49:1 isolate after 1 day; conditions: 24 h
Clostridioides difficile [7] = assay: Antibacterial activity against fusidic acid resistant Clostridium difficile 49:3 isolate with fusA S116L and A374V mutation after 35 to 40 days
Clostridioides difficile [8] = assay: Antibacterial activity against fusidic acid resistant Clostridium difficile 51:1 isolate after 1 day; conditions: 24 h
Clostridioides difficile [9] = assay: Antibacterial activity against fusidic acid resistant Clostridium difficile 51:2 isolate with fusA S449P mutation after 8 to 13 days
Clostridioides difficile [10] = assay: Antibacterial activity against fusidic acid resistant Clostridium difficile 57:1 isolate after 1 day; conditions: 24 h
Clostridioides difficile [11] = assay: Antibacterial activity against fusidic acid resistant Clostridium difficile 62:1 isolate after 1 day; conditions: 24 h
Clostridioides difficile [12] = assay: Antibacterial activity against fusidic acid resistant Clostridium difficile 62:2 isolate after 8 to 13 days
Clostridioides difficile [13] = assay: Antibacterial activity against fusidic acid resistant Clostridium difficile 62:3 isolate with fusA A375 deletion after 35 to 40 days
Clostridioides difficile [14] = assay: Antibacterial activity against fusidic acid resistant Clostridium difficile 63:1 isolate after 1 day; conditions: 24 h
Clostridioides difficile [15] = assay: Antibacterial activity against fusidic acid resistant Clostridium difficile 63:2 isolate with fusA T434I after 8 to 13 days
Clostridioides difficile [16] = assay: Antibacterial activity against fusidic acid resistant Clostridium difficile 72:1 isolate after 1 day; conditions: 24 h
Clostridioides difficile [17] = assay: Antibacterial activity against fusidic acid resistant Clostridium difficile 72:2 isolate with fusA S116L and A374V mutation after 8 to 13 days
Clostridioides difficile [18] = assay: Antibacterial activity against fusidic acid resistant Clostridium difficile 73:1 isolate after 1 day; conditions: 24 h
Clostridioides difficile [19] = assay: Antibacterial activity against fusidic acid resistant Clostridium difficile 73:2 isolate with fusA I459R mutation after 8 to 13 days
Clostridioides difficile [20] = assay: Antibacterial activity against fusidic acid resistant Clostridium difficile 100:1 isolate after 1 day; conditions: 24 h
Clostridioides difficile [21] = assay: Antibacterial activity against fusidic acid resistant Clostridium difficile 100:2 isolate with fusA V119A mutation after 8 to 13 days
Clostridioides difficile [22] = assay: Antibacterial activity against fusidic acid resistant Clostridium difficile 107:1 isolate after 1 day; conditions: 24 h
Clostridioides difficile [23] = assay: Antibacterial activity against fusidic acid resistant Clostridium difficile 107:3 isolate with fusA A459R mutation after 35 to 40 days
Clostridioides difficile [24] = assay: Antibacterial activity against fusidic acid resistant Clostridium difficile 248:1 isolate after 1 day; conditions: 24 h
Clostridioides difficile [25] = assay: Antibacterial activity against fusidic acid resistant Clostridium difficile 248:3 isolate with fusA H455R mutation after 35 to 40 days
Clostridioides difficile [26] = assay: Antibacterial activity against fusidic acid resistant Clostridium difficile 58:1 isolate with fusA H455Q mutation after 1 day; conditions: 24 h
Clostridioides difficile [27] = assay: Antibacterial activity against fusidic acid resistant Clostridium difficile 58:2 isolate with fusA H455Q mutation after 8 to 13 days

Measured: MIC

CC(=O)O[C@H]1C[C@@]2(C)[C@@H](C[C@@H](O)[C@H]3[C@@]4(C)CC[C@@H](O)[C@@H](C)[C@@H]4CC[C@@]32C)/C1=C(\CCC=C(C)C)C(=O)O [FUSIDIC ACID]
0.125 µg/mL: Clostridioides difficile [24]
4 µg/mL: Clostridioides difficile [13]
0.19 µg/mL: Clostridioides difficile [22]
0.25 µg/mL: Clostridioides difficile [3] | Clostridioides difficile [6] | Clostridioides difficile [8] | Clostridioides difficile [11] | Clostridioides difficile [12] | Clostridioides difficile [14] | Clostridioides difficile [16]
0.38 µg/mL: Clostridioides difficile [4] | Clostridioides difficile [10] | Clostridioides difficile [20]
0.5 µg/mL: Clostridioides difficile [18]
64 µg/mL: Clostridioides difficile [15]
> 256 µg/mL: all other assays above
